Assay results published in PubChem BioAssay (NCI).
Several values for one entry are separate records, joined by “and”; a condition that tells them apart may be missing. Identical values can stand only once.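 96-well plates; 48 h exposure; 5 concentrations. Endpoints by linear interpolation between flanking doses. Not reached: highest tested concentration assigned. GI50 = concentration required for 50% inhibition of growth. TGI: total growth inhibition.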

Columns and labels:
Experiment in all cases: growth of human tumour cells (NCI), 48 h
[1] = system: NCI/ADR-RES ovarian
[2] = system: HCT-15 colon
[3] = system: LXFL 529 NSCLC
[4] = system: KM20L2 colon
[5] = system: RXF 393 renal
[6] = system: MDA-MB-435
[7] = system: RPMI-8226 leukemia
[8] = system: CAKI-1 renal
[9] = system: HS 578T breast
[10] = system: SNB-78 CNS
[11] = system: NCI-H522 lung
[12] = system: DMS 114 small cell lung
[13] = system: PC-3 prostate
[14] = system: SK-MEL-2 melanoma
[15] = system: DMS 273 small cell lung
[16] = system: MDA-N
[17] = system: KM12 colon
[18] = system: T-47D breast
[19] = system: HT29 colon
[20] = system: M19-MEL melanoma
[21] = system: MDA-MB-231 breast
[22] = system: K-562 leukemia
[23] = system: OVCAR-5 ovarian
[24] = system: A498 renal
[25] = system: DLD-1 colon
[26] = system: MCF7 breast
[27] = system: HOP-18 NSCLC
[28] = system: DU-145 prostate
[29] = system: XF 498 CNS
[30] = system: M14 melanoma
[31] = system: NCI-H226 lung
[32] = system: SK-OV-3 ovarian
[33] = system: OVCAR-4 ovarian
[34] = system: LOX IMVI melanoma
[35] = system: 786-0 renal
[36] = system: SF-295 CNS
[37] = system: HOP-62 NSCLC
[38] = system: OVCAR-3 ovarian
[39] = system: A549 NSCLC
[40] = system: HCC-2998 colon
[41] = system: HOP-92 NSCLC
[42] = system: NCI-H460 lung
[43] = system: SN12C renal
[44] = system: MOLT-4 leukemia
[45] = system: UO-31 renal
[46] = system: UACC-62 melanoma
[47] = system: SK-MEL-5 melanoma
[48] = system: OVCAR-8 ovarian
[49] = system: CCRF-CEM leukemia
[50] = system: NCI-H23 lung
[51] = system: SF-539 CNS
[52] = system: HCT-116 colon
[53] = system: EKVX NSCLC
[54] = system: COLO 205 colon
[55] = system: MALME-3M melanoma
[56] = system: ACHN renal
[57] = system: UACC-257 melanoma
[58] = system: SNB-75 CNS
[59] = system: U251 CNS
[60] = system: SW-620 colon
[61] = system: HL-60(TB) leukemia
[62] = system: IGROV1 ovarian
[63] = system: SNB-19 CNS
[64] = system: TK-10 renal
[65] = system: SF-268 CNS
[66] = system: SK-MEL-28 melanoma
[67] = system: SR leukemia

Compound: COc1ccc2c(c[n+](C)c3c4cc5c(cc4ccc23)OCO5)c1OC
- TGI [1]: > 100 µM
- TGI [2]: 17.5 µM and > 100 µM
- TGI [3]: 3.35 µM
- TGI [4]: 3.15 µM
- TGI [5]: > 100 µM
- TGI [6]: 43.8 µM
- TGI [7]: > 100 µM
- TGI [8]: 3.63 µM
- TGI [9]: > 100 µM
- TGI [10]: 4.26 µM
- TGI [11]: 3.64 µM
- TGI [12]: 4.71 µM
- TGI [13]: > 100 µM
- TGI [14]: 3.54 µM
- TGI [15]: 3.72 µM
- TGI [16]: 44.5 µM
- GI50 [17]: 2.1 µM and 9 µM
- TGI [18]: > 100 µM
- GI50 [19]: 1.78 µM and 5.12 µM
- TGI [20]: 3.07 µM
- TGI [21]: > 100 µM
- GI50 [22]: 3.8 µM and 34.1 µM
- TGI [22]: > 100 µM
- GI50 [23]: 2.49 µM and 22.8 µM
- GI50 [24]: 9.16 µM and 73.7 µM
- TGI [24]: 21.9 µM and > 100 µM
- TGI [25]: 3.08 µM
- TGI [26]: 79.6 µM
- TGI [27]: 4.04 µM
- TGI [28]: > 100 µM

Compound: O=C(N/N=C/c1cc(Cl)cc(Cl)c1[O-])c1ccccc1.O=C(N/N=C/c1cc(Cl)cc(Cl)c1[O-])c1ccccc1.[Co+2]
- GI50 [29]: 12.4 µM
- TGI [29]: > 100 µM
- GI50 [2]: 7.22 µM
- TGI [2]: > 100 µM
- GI50 [3]: 7.38 µM
- TGI [3]: > 100 µM
- GI50 [30]: 17.8 µM
- TGI [30]: 78.3 µM
- GI50 [4]: 47.8 µM
- TGI [4]: > 100 µM
- GI50 [7]: 13.4 µM
- TGI [7]: > 100 µM
- GI50 [31]: 26.5 µM
- TGI [31]: 92.2 µM
- GI50 [32]: 40.9 µM
- TGI [32]: > 100 µM
- GI50 [8]: 21.7 µM
- TGI [8]: > 100 µM
- GI50 [33]: 16.1 µM
- TGI [33]: > 100 µM
- GI50 [34]: 9.19 µM
- TGI [34]: > 100 µM
- GI50 [35]: 10.4 µM
- TGI [35]: > 100 µM
- GI50 [10]: 53.2 µM
- TGI [10]: > 100 µM
- GI50 [36]: 20.8 µM
- TGI [36]: 97.6 µM
- GI50 [37]: 24.8 µM
- TGI [37]: > 100 µM
- GI50 [38]: 3.18 µM
- TGI [38]: > 100 µM
- GI50 [12]: 10.6 µM
- TGI [12]: 67.9 µM
- GI50 [39]: 28.8 µM
- TGI [39]: > 100 µM
- GI50 [40]: 40.7 µM
- TGI [40]: > 100 µM
- GI50 [41]: 5.71 µM
- TGI [41]: 46.9 µM
- GI50 [42]: 16.7 µM
- TGI [42]: > 100 µM
- GI50 [43]: 14.8 µM
- TGI [43]: > 100 µM
- GI50 [44]: 4.43 µM
- TGI [44]: 21.4 µM
- GI50 [45]: 16.8 µM
- TGI [45]: 73.3 µM
- GI50 [14]: 26.5 µM
- TGI [14]: > 100 µM
- GI50 [46]: 12.2 µM
- TGI [46]: 51.6 µM
- GI50 [47]: 29 µM
- TGI [47]: > 100 µM
- GI50 [17]: 27.3 µM
- TGI [17]: > 100 µM
- GI50 [48]: 21.1 µM
- TGI [48]: > 100 µM
- GI50 [49]: 3.43 µM
- TGI [49]: 19.6 µM
- GI50 [50]: 21 µM
- TGI [50]: > 100 µM
- GI50 [19]: 49.5 µM
- TGI [19]: > 100 µM
- GI50 [51]: 20.5 µM
- TGI [51]: 93 µM
- GI50 [20]: 20.5 µM
- TGI [20]: > 100 µM
- GI50 [52]: 14.6 µM
- TGI [52]: > 100 µM
- GI50 [53]: 10.3 µM
- TGI [53]: > 100 µM
- GI50 [22]: 15.6 µM
- TGI [22]: 76.7 µM
- GI50 [54]: 42.1 µM
- TGI [54]: > 100 µM
- GI50 [55]: 33 µM
- TGI [55]: > 100 µM
- GI50 [56]: 16.7 µM
- TGI [56]: > 100 µM
- GI50 [57]: 19.6 µM
- TGI [57]: 76.3 µM
- GI50 [23]: 46.5 µM
- TGI [23]: > 100 µM
- GI50 [58]: 25.3 µM
- TGI [58]: > 100 µM
- GI50 [59]: 33.5 µM
- TGI [59]: > 100 µM
- GI50 [60]: 24.9 µM
- TGI [60]: > 100 µM
- GI50 [24]: 34.4 µM
- TGI [24]: > 100 µM
- GI50 [25]: 14.7 µM
- TGI [25]: > 100 µM
- GI50 [61]: 2.62 µM
- TGI [61]: 8.89 µM
- GI50 [62]: 27.8 µM
- TGI [62]: > 100 µM
- GI50 [63]: 45 µM
- TGI [63]: > 100 µM
- GI50 [27]: 9.34 µM
- TGI [27]: > 100 µM
- GI50 [64]: 41 µM
- TGI [64]: > 100 µM

Compound: O=C(CCc1nnc2s/c(=C\c3ccccc3Cl)c(=O)n12)Nc1cc(Cl)ccc1Cl
- TGI [29]: > 100 µM
- TGI [2]: > 100 µM
- TGI [3]: > 100 µM
- TGI [65]: > 100 µM
- TGI [30]: > 100 µM
- TGI [66]: > 100 µM
- TGI [5]: > 100 µM
- TGI [7]: > 100 µM
- TGI [31]: > 100 µM
- TGI [32]: > 100 µM
- TGI [8]: > 100 µM
- TGI [33]: > 100 µM
- TGI [34]: > 100 µM
- TGI [35]: > 100 µM
- TGI [10]: > 100 µM
- TGI [36]: > 100 µM
- TGI [37]: > 100 µM
- TGI [38]: > 100 µM
- TGI [11]: > 100 µM
- TGI [12]: > 100 µM
- TGI [39]: > 100 µM
- TGI [40]: > 100 µM
- TGI [41]: > 100 µM
- TGI [42]: > 100 µM
- TGI [67]: > 100 µM
- TGI [43]: > 100 µM
- TGI [44]: > 100 µM
- TGI [45]: > 100 µM
- TGI [14]: > 100 µM
- TGI [46]: > 100 µM
- TGI [47]: > 100 µM
- TGI [17]: > 100 µM
- TGI [48]: > 100 µM
- TGI [49]: > 100 µM
- TGI [50]: > 100 µM
- TGI [19]: > 100 µM
- TGI [51]: > 100 µM
- TGI [20]: > 100 µM
- TGI [52]: > 100 µM
- TGI [53]: > 100 µM
- TGI [22]: > 100 µM
- TGI [55]: > 100 µM
- TGI [56]: > 100 µM
- TGI [57]: > 100 µM
- TGI [23]: > 100 µM
- TGI [59]: > 100 µM
- TGI [60]: > 100 µM
- TGI [25]: > 100 µM
- TGI [61]: > 100 µM
- TGI [62]: > 100 µM
- TGI [63]: > 100 µM
- TGI [27]: > 100 µM
- TGI [64]: > 100 µM
